Oligonucleotides are given in HELM: sugar(base)linkage, 5' to 3'; d 2'-deoxyribose, r ribose, m 2'-O-methylribose, p phosphate. ss, as = sense and antisense strand
What follows are substances tested against TMEM63B (assay: reporter assay of Huesken 2005). Conditions: siRNA.
Further: test concentration or dose not given here.

Substance	normalised inhibition (eCFP-eYFP dual reporter) [%]
RNA1{r(G)p.r(A)p.r(G)p.r(A)p.r(G)p.r(G)p.r(C)p.r(G)p.r(C)p.r(A)p.r(A)p.r(C)p.r(G)p.r(U)p.r(G)p.r(A)p.r(A)p.r(G)p.r(C)p.d(T)p.d(T)}|RNA2{r(G)p.r(C)p.r(U)p.r(U)p.r(C)p.r(A)p.r(C)p.r(G)p.r(U)p.r(U)p.r(G)p.r(C)p.r(G)p.r(C)p.r(C)p.r(U)p.r(C)p.r(U)p.r(C)p.d(G)p.d(G)}$$$RNA1{StrandType:ss}|RNA2{StrandType:as}$	56.8
RNA1{r(G)p.r(G)p.r(G)p.r(A)p.r(U)p.r(G)p.r(G)p.r(G)p.r(G)p.r(C)p.r(U)p.r(C)p.r(C)p.r(U)p.r(G)p.r(G)p.r(G)p.r(A)p.r(G)p.d(T)p.d(T)}|RNA2{r(C)p.r(U)p.r(C)p.r(C)p.r(C)p.r(A)p.r(G)p.r(G)p.r(A)p.r(G)p.r(C)p.r(C)p.r(C)p.r(C)p.r(A)p.r(U)p.r(C)p.r(C)p.r(C)p.d(C)p.d(A)}$$$RNA1{StrandType:ss}|RNA2{StrandType:as}$	43.3
RNA1{r(G)p.r(C)p.r(U)p.r(U)p.r(U)p.r(G)p.r(G)p.r(G)p.r(A)p.r(G)p.r(A)p.r(A)p.r(C)p.r(C)p.r(A)p.r(C)p.r(C)p.r(A)p.r(U)p.d(T)p.d(T)}|RNA2{r(A)p.r(U)p.r(G)p.r(G)p.r(U)p.r(G)p.r(G)p.r(U)p.r(U)p.r(C)p.r(U)p.r(C)p.r(C)p.r(C)p.r(A)p.r(A)p.r(A)p.r(G)p.r(C)p.d(T)p.d(G)}$$$RNA1{StrandType:ss}|RNA2{StrandType:as}$	75.8
RNA1{r(C)p.r(G)p.r(C)p.r(C)p.r(C)p.r(U)p.r(C)p.r(A)p.r(C)p.r(G)p.r(G)p.r(A)p.r(C)p.r(A)p.r(C)p.r(A)p.r(G)p.r(A)p.r(C)p.d(T)p.d(T)}|RNA2{r(G)p.r(U)p.r(C)p.r(U)p.r(G)p.r(U)p.r(G)p.r(U)p.r(C)p.r(C)p.r(G)p.r(U)p.r(G)p.r(A)p.r(G)p.r(G)p.r(G)p.r(C)p.r(G)p.d(T)p.d(C)}$$$RNA1{StrandType:ss}|RNA2{StrandType:as}$	59.1
RNA1{r(U)p.r(C)p.r(C)p.r(A)p.r(U)p.r(C)p.r(C)p.r(G)p.r(A)p.r(G)p.r(G)p.r(C)p.r(U)p.r(U)p.r(C)p.r(A)p.r(U)p.r(C)p.r(U)p.d(T)p.d(T)}|RNA2{r(A)p.r(G)p.r(A)p.r(U)p.r(G)p.r(A)p.r(A)p.r(G)p.r(C)p.r(C)p.r(U)p.r(C)p.r(G)p.r(G)p.r(A)p.r(U)p.r(G)p.r(G)p.r(A)p.d(G)p.d(A)}$$$RNA1{StrandType:ss}|RNA2{StrandType:as}$	65.3
RNA1{r(U)p.r(G)p.r(C)p.r(A)p.r(G)p.r(C)p.r(G)p.r(A)p.r(G)p.r(U)p.r(C)p.r(C)p.r(C)p.r(U)p.r(G)p.r(C)p.r(A)p.r(C)p.r(A)p.d(T)p.d(T)}|RNA2{r(U)p.r(G)p.r(U)p.r(G)p.r(C)p.r(A)p.r(G)p.r(G)p.r(G)p.r(A)p.r(C)p.r(U)p.r(C)p.r(G)p.r(C)p.r(U)p.r(G)p.r(C)p.r(A)p.d(G)p.d(G)}$$$RNA1{StrandType:ss}|RNA2{StrandType:as}$	25.9
RNA1{r(C)p.r(U)p.r(C)p.r(C)p.r(G)p.r(U)p.r(U)p.r(G)p.r(A)p.r(C)p.r(U)p.r(U)p.r(U)p.r(G)p.r(A)p.r(C)p.r(C)p.r(A)p.r(A)p.d(T)p.d(T)}|RNA2{r(U)p.r(U)p.r(G)p.r(G)p.r(U)p.r(C)p.r(A)p.r(A)p.r(A)p.r(G)p.r(U)p.r(C)p.r(A)p.r(A)p.r(C)p.r(G)p.r(G)p.r(A)p.r(G)p.d(C)p.d(T)}$$$RNA1{StrandType:ss}|RNA2{StrandType:as}$	98.6
RNA1{r(G)p.r(C)p.r(A)p.r(A)p.r(C)p.r(G)p.r(C)p.r(C)p.r(A)p.r(U)p.r(G)p.r(G)p.r(A)p.r(C)p.r(C)p.r(U)p.r(G)p.r(C)p.r(U)p.d(T)p.d(T)}|RNA2{r(A)p.r(G)p.r(C)p.r(A)p.r(G)p.r(G)p.r(U)p.r(C)p.r(C)p.r(A)p.r(U)p.r(G)p.r(G)p.r(C)p.r(G)p.r(U)p.r(U)p.r(G)p.r(C)p.d(C)p.d(G)}$$$RNA1{StrandType:ss}|RNA2{StrandType:as}$	71.1
RNA1{r(C)p.r(U)p.r(C)p.r(U)p.r(C)p.r(C)p.r(G)p.r(U)p.r(A)p.r(G)p.r(G)p.r(C)p.r(A)p.r(U)p.r(C)p.r(G)p.r(U)p.r(G)p.r(C)p.d(T)p.d(T)}|RNA2{r(G)p.r(C)p.r(A)p.r(C)p.r(G)p.r(A)p.r(U)p.r(G)p.r(C)p.r(C)p.r(U)p.r(A)p.r(C)p.r(G)p.r(G)p.r(A)p.r(G)p.r(A)p.r(G)p.d(G)p.d(A)}$$$RNA1{StrandType:ss}|RNA2{StrandType:as}$	75.8
RNA1{r(U)p.r(C)p.r(A)p.r(C)p.r(C)p.r(A)p.r(C)p.r(C)p.r(A)p.r(U)p.r(G)p.r(G)p.r(A)p.r(C)p.r(A)p.r(A)p.r(G)p.r(U)p.r(U)p.d(T)p.d(T)}|RNA2{r(A)p.r(A)p.r(C)p.r(U)p.r(U)p.r(G)p.r(U)p.r(C)p.r(C)p.r(A)p.r(U)p.r(G)p.r(G)p.r(U)p.r(G)p.r(G)p.r(U)p.r(G)p.r(A)p.d(T)p.d(G)}$$$RNA1{StrandType:ss}|RNA2{StrandType:as}$	67.7
RNA1{r(A)p.r(C)p.r(G)p.r(C)p.r(U)p.r(C)p.r(U)p.r(G)p.r(G)p.r(G)p.r(G)p.r(A)p.r(G)p.r(A)p.r(A)p.r(C)p.r(A)p.r(G)p.r(G)p.d(T)p.d(T)}|RNA2{r(C)p.r(C)p.r(U)p.r(G)p.r(U)p.r(U)p.r(C)p.r(U)p.r(C)p.r(C)p.r(C)p.r(C)p.r(A)p.r(G)p.r(A)p.r(G)p.r(C)p.r(G)p.r(U)p.d(G)p.d(T)}$$$RNA1{StrandType:ss}|RNA2{StrandType:as}$	48.3
RNA1{r(C)p.r(A)p.r(G)p.r(G)p.r(A)p.r(C)p.r(A)p.r(A)p.r(C)p.r(C)p.r(A)p.r(U)p.r(G)p.r(C)p.r(A)p.r(C)p.r(A)p.r(A)p.r(G)p.d(T)p.d(T)}|RNA2{r(C)p.r(U)p.r(U)p.r(G)p.r(U)p.r(G)p.r(C)p.r(A)p.r(U)p.r(G)p.r(G)p.r(U)p.r(U)p.r(G)p.r(U)p.r(C)p.r(C)p.r(U)p.r(G)p.d(T)p.d(T)}$$$RNA1{StrandType:ss}|RNA2{StrandType:as}$	61.5
RNA1{r(C)p.r(U)p.r(U)p.r(G)p.r(A)p.r(A)p.r(A)p.r(U)p.r(C)p.r(A)p.r(G)p.r(G)p.r(G)p.r(A)p.r(A)p.r(C)p.r(A)p.r(A)p.r(C)p.d(T)p.d(T)}|RNA2{r(G)p.r(U)p.r(U)p.r(G)p.r(U)p.r(U)p.r(C)p.r(C)p.r(C)p.r(U)p.r(G)p.r(A)p.r(U)p.r(U)p.r(U)p.r(C)p.r(A)p.r(A)p.r(G)p.d(T)p.d(T)}$$$RNA1{StrandType:ss}|RNA2{StrandType:as}$	71.1
RNA1{r(G)p.r(C)p.r(U)p.r(A)p.r(U)p.r(G)p.r(C)p.r(A)p.r(C)p.r(G)p.r(G)p.r(G)p.r(G)p.r(A)p.r(C)p.r(A)p.r(G)p.r(C)p.r(C)p.d(T)p.d(T)}|RNA2{r(G)p.r(G)p.r(C)p.r(U)p.r(G)p.r(U)p.r(C)p.r(C)p.r(C)p.r(C)p.r(G)p.r(U)p.r(G)p.r(C)p.r(A)p.r(U)p.r(A)p.r(G)p.r(C)p.d(T)p.d(G)}$$$RNA1{StrandType:ss}|RNA2{StrandType:as}$	73.2
RNA1{r(G)p.r(C)p.r(A)p.r(U)p.r(U)p.r(U)p.r(U)p.r(G)p.r(A)p.r(G)p.r(G)p.r(A)p.r(A)p.r(G)p.r(C)p.r(C)p.r(U)p.r(A)p.r(C)p.d(T)p.d(T)}|RNA2{r(G)p.r(U)p.r(A)p.r(G)p.r(G)p.r(C)p.r(U)p.r(U)p.r(C)p.r(C)p.r(U)p.r(C)p.r(A)p.r(A)p.r(A)p.r(A)p.r(U)p.r(G)p.r(C)p.d(T)p.d(T)}$$$RNA1{StrandType:ss}|RNA2{StrandType:as}$	87.3
RNA1{r(A)p.r(U)p.r(C)p.r(U)p.r(G)p.r(C)p.r(G)p.r(A)p.r(A)p.r(A)p.r(U)p.r(A)p.r(C)p.r(A)p.r(U)p.r(C)p.r(G)p.r(C)p.r(U)p.d(T)p.d(T)}|RNA2{r(A)p.r(G)p.r(C)p.r(G)p.r(A)p.r(U)p.r(G)p.r(U)p.r(A)p.r(U)p.r(U)p.r(U)p.r(C)p.r(G)p.r(C)p.r(A)p.r(G)p.r(A)p.r(U)p.d(T)p.d(T)}$$$RNA1{StrandType:ss}|RNA2{StrandType:as}$	50.5
RNA1{r(A)p.r(G)p.r(G)p.r(U)p.r(G)p.r(C)p.r(U)p.r(G)p.r(C)p.r(A)p.r(G)p.r(G)p.r(A)p.r(C)p.r(U)p.r(C)p.r(A)p.r(G)p.r(A)p.d(T)p.d(T)}|RNA2{r(U)p.r(C)p.r(U)p.r(G)p.r(A)p.r(G)p.r(U)p.r(C)p.r(C)p.r(U)p.r(G)p.r(C)p.r(A)p.r(G)p.r(C)p.r(A)p.r(C)p.r(C)p.r(U)p.d(G)p.d(A)}$$$RNA1{StrandType:ss}|RNA2{StrandType:as}$	61.8
RNA1{r(U)p.r(U)p.r(G)p.r(C)p.r(U)p.r(G)p.r(A)p.r(U)p.r(G)p.r(C)p.r(C)p.r(A)p.r(C)p.r(C)p.r(C)p.r(G)p.r(A)p.r(C)p.r(G)p.d(T)p.d(T)}|RNA2{r(C)p.r(G)p.r(U)p.r(C)p.r(G)p.r(G)p.r(G)p.r(U)p.r(G)p.r(G)p.r(C)p.r(A)p.r(U)p.r(C)p.r(A)p.r(G)p.r(C)p.r(A)p.r(A)p.d(C)p.d(T)}$$$RNA1{StrandType:ss}|RNA2{StrandType:as}$	39.7
RNA1{r(A)p.r(G)p.r(C)p.r(A)p.r(G)p.r(G)p.r(U)p.r(G)p.r(G)p.r(A)p.r(G)p.r(G)p.r(C)p.r(C)p.r(A)p.r(U)p.r(U)p.r(G)p.r(A)p.d(T)p.d(T)}|RNA2{r(U)p.r(C)p.r(A)p.r(A)p.r(U)p.r(G)p.r(G)p.r(C)p.r(C)p.r(U)p.r(C)p.r(C)p.r(A)p.r(C)p.r(C)p.r(U)p.r(G)p.r(C)p.r(U)p.d(C)p.d(A)}$$$RNA1{StrandType:ss}|RNA2{StrandType:as}$	77.2
RNA1{r(U)p.r(G)p.r(C)p.r(C)p.r(G)p.r(U)p.r(G)p.r(G)p.r(G)p.r(G)p.r(A)p.r(G)p.r(C)p.r(C)p.r(A)p.r(C)p.r(G)p.r(C)p.r(C)p.d(T)p.d(T)}|RNA2{r(G)p.r(G)p.r(C)p.r(G)p.r(U)p.r(G)p.r(G)p.r(C)p.r(U)p.r(C)p.r(C)p.r(C)p.r(C)p.r(A)p.r(C)p.r(G)p.r(G)p.r(C)p.r(A)p.d(G)p.d(G)}$$$RNA1{StrandType:ss}|RNA2{StrandType:as}$	62.7
